In ChEMBL document CHEMBL5137036, “Design and synthesis of highly TRAIL expression HDAC inhibitors based on ONC201 to promote apoptosis of colorectal cancer” (Eur J Med Chem, 2022):
Activity calls are given as the source filed them. The rule behind the calls is not given here.

What was measured:
[1] = molecular target: T1, Histone deacetylase 1 (Homo sapiens, UniProt Q13547); experiment: Inhibition of human HDAC1 using RHKKAc fluorogenic peptide as substrate preincubated for 10 mins followed by substrate addition by fluorescence based analysis
[2] = test system: MV4-11; experiment: Antiproliferative activity against human MV4-11 cells assessed as inhibition of cell growth incubated for 72 hrs by luminescence based analysis; type: functional; settings: MV4-11, 72 h
[3] = test system: HepG2; experiment: Antiproliferative activity against human HepG2 cells assessed as inhibition of cell growth incubated for 72 hrs by luminescence based analysis; type: functional; settings: HepG2, 72 h
[4] = test system: HCT-116; experiment: Antiproliferative activity against human HCT-116 cells assessed as inhibition of cell growth incubated for 72 hrs by luminescence based analysis; type: functional; settings: HCT-116, 72 h
[5] = molecular target: T1, Histone deacetylase 1; experiment: Inhibition of HDAC1 in human HCT-116 cells assessed as increase in DR5 protein expression at 0.5 uM incubated for 12 hrs by Western blot analysis; type: cell-based
[6] = molecular target: T1, Histone deacetylase 1; experiment: Inhibition of HDAC1 in human HCT-116 cells assessed as increase in TRAIL protein expression at 0.5 uM incubated for 12 hrs by Western blot analysis; type: cell-based
[7] = molecular target: T1, Histone deacetylase 1; experiment: Inhibition of HDAC1 in human HCT-116 cells assessed as increase in Ac-H4 acetylation at 0.5 uM incubated for 12 hrs by Western blot analysis; type: cell-based
[8] = test system: HCT-116; experiment: Induction of apoptosis in human HCT-116 cells assessed as increase in Bax protein expression incubated for 12 hrs by Western blot analysis; type: functional, cell-based; settings: dose 0.125-0.5 µM, DDE = dose-dependent effect
[9] = test system: HCT-116; experiment: Induction of apoptosis in human HCT-116 cells assessed as decrease in Bcl2 protein expression incubated for 12 hrs by Western blot analysis; type: functional, cell-based; settings: dose 0.125-0.5 µM, DDE = dose-dependent effect
[10] = molecular target: Histone deacetylase 2 (Homo sapiens, UniProt Q92769); experiment: Inhibition of human HDAC2 using RHKKAc fluorogenic peptide as substrate preincubated for 10 mins followed by substrate addition by fluorescence based analysis
[11] = molecular target: Histone deacetylase 4 (Homo sapiens, UniProt P56524); experiment: Inhibition of human HDAC4 using Boc-Lys(trifluoroacetyl)-AMC as fluorogenic substrate preincubated for 10 mins followed by substrate addition by fluorescence based analysis
[12] = molecular target: T2, Histone deacetylase 8 (Homo sapiens, UniProt Q9BY41); experiment: Inhibition of human HDAC8 using RHKAcKAc as fluorogenic substrate preincubated for 10 mins followed by substrate addition by fluorescence based analysis
T2 sequence (Q9BY41 whole entry): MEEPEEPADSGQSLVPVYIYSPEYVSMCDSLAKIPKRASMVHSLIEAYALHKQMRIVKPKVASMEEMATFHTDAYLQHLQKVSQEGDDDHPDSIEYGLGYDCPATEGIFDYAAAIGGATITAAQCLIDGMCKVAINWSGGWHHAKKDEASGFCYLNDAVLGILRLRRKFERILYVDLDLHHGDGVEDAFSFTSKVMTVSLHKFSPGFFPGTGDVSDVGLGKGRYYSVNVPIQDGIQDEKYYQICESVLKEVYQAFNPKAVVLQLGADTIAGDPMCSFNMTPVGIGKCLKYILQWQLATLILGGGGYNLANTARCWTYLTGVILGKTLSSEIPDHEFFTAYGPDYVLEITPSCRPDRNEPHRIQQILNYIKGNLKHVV

[13] = test system: HCT-116; experiment: Induction of apoptosis in human HCT-116 cells assessed as late apoptotic cells at 0.125 uM incubated for 24 hrs by AnnexinV-FITC/PI staining based flow cytometry (reference value: 0.82 %); type: functional
[14] = test system: HCT-116; experiment: Induction of apoptosis in human HCT-116 cells assessed as dead cells at 0.125 uM incubated for 24 hrs by AnnexinV-FITC/PI staining based flow cytometry (reference value: 4.62 %); type: functional
[15] = test system: HCT-116; experiment: Induction of apoptosis in human HCT-116 cells assessed as viable cells at 0.25 uM incubated for 24 hrs by AnnexinV-FITC/PI staining based flow cytometry (reference value: 93.64%); type: functional; settings: read-out: Activity
[16] = test system: HCT-116; experiment: Induction of apoptosis in human HCT-116 cells assessed as early apoptotic cells at 0.25 uM incubated for 24 hrs by AnnexinV-FITC/PI staining based flow cytometry (reference value: 0.93 %); type: functional
[17] = test system: HCT-116; experiment: Induction of apoptosis in human HCT-116 cells assessed as late apoptotic cells at 0.25 uM incubated for 24 hrs by AnnexinV-FITC/PI staining based flow cytometry (reference value: 0.82 %); type: functional
[18] = test system: HCT-116; experiment: Induction of apoptosis in human HCT-116 cells assessed as viable cells at 0.5 uM incubated for 24 hrs by AnnexinV-FITC/PI staining based flow cytometry (reference value: 93.64%); type: functional; settings: read-out: Activity
[19] = test system: HCT-116; experiment: Induction of apoptosis in human HCT-116 cells assessed as late apoptotic cells at 0.5 uM incubated for 24 hrs by AnnexinV-FITC/PI staining based flow cytometry (reference value: 0.82 %); type: functional
[20] = test system: HCT-116; experiment: Induction of apoptosis in human HCT-116 cells assessed as dead cells at 0.5 uM incubated for 24 hrs by AnnexinV-FITC/PI staining based flow cytometry (reference value: 4.62 %); type: functional
[21] = test system: HCT-116; experiment: Antitumor activity against human HCT-116 cells xenografted in BALB/c mouse assessed as reduction in tumor growth at 12.5 mg/kg, po qd administered for 3 weeks and measured every 3 days by vernier caliper analysis; type: functional, organism-based
[22] = test system: HCT-116; experiment: Antitumor activity against human HCT-116 cells xenografted in BALB/c mouse assessed as reduction in tumor growth at 50 mg/kg, po qd administered for 3 weeks and measured every 3 days by vernier caliper analysis; type: functional, organism-based
[23] = test system: HCT-116; experiment: Antitumor activity against human HCT-116 cells xenografted in BALB/c mouse assessed as reduction in tumor growth by measuring T/C ratio at 25 mg/kg, po qd administered for 3 weeks and measured every 3 days by vernier caliper analysis; type: functional
[24] = Toxicity in BALB/c mouse xenografted with human HCT-116 cells assessed as reduction in body weight at 12.5 to 25 mg/kg, po qd administered for 3 weeks; type: organism-based; settings: in vivo, 504 h, dose 12.5-25 mg/kg
[25] = Toxicity in BALB/c mouse xenografted with human HCT-116 cells assessed as morphological changes in heart at 12.5 to 25 mg/kg, po qd administered for 21 days by H & E staining based microscopic analysis; type: organism-based; settings: in vivo, 504 h, dose 12.5-25 mg/kg, time 21 day
[26] = Toxicity in BALB/c mouse xenografted with human HCT-116 cells assessed as morphological changes in lung at 12.5 to 25 mg/kg, po qd administered for 21 days by H & E staining based microscopic analysis; type: organism-based; settings: in vivo, 504 h, dose 12.5-25 mg/kg, time 21 day
[27] = test system: HCT-116; experiment: Effect on HDAC1 protein expression in human HCT-116 cells incubated for 12 hrs by Western blot analysis; type: functional, cell-based; settings: dose 0.125-0.5 µM, DDE = dose-dependent effect
[28] = test system: HCT-116; experiment: Effect on DR5 protein expression in human HCT-116 cells incubated for 12 hrs by Western blot analysis; type: functional, cell-based; settings: dose 0.125-0.5 µM, DDE = dose-dependent effect
[29] = test system: HCT-116; experiment: Effect on TRAIL protein expression in human HCT-116 cells incubated for 12 hrs by Western blot analysis; type: functional, cell-based; settings: dose 0.125-0.5 µM, DDE = dose-dependent effect
[30] = test system: HCT-116; experiment: Effect on ac-H3 protein expression in human HCT-116 cells incubated for 12 hrs by Western blot analysis; type: functional, cell-based; settings: dose 0.125-0.5 µM, DDE = dose-dependent effect

T1 sequence (Q13547 whole entry): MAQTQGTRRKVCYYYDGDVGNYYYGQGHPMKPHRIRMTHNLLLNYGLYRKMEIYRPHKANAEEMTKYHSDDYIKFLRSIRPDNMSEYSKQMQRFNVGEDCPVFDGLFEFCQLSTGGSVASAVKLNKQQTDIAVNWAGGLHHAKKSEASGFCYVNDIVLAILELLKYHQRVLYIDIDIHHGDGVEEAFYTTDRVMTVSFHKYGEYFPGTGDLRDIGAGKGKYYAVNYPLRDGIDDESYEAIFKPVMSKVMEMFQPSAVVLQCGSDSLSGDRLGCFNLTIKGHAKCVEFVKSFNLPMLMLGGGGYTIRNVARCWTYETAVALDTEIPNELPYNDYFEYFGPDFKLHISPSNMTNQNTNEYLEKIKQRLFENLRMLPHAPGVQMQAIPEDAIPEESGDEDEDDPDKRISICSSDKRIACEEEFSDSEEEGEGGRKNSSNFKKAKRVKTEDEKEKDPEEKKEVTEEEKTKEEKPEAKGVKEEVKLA
Histone deacetylase 4, sequence (P56524 whole entry): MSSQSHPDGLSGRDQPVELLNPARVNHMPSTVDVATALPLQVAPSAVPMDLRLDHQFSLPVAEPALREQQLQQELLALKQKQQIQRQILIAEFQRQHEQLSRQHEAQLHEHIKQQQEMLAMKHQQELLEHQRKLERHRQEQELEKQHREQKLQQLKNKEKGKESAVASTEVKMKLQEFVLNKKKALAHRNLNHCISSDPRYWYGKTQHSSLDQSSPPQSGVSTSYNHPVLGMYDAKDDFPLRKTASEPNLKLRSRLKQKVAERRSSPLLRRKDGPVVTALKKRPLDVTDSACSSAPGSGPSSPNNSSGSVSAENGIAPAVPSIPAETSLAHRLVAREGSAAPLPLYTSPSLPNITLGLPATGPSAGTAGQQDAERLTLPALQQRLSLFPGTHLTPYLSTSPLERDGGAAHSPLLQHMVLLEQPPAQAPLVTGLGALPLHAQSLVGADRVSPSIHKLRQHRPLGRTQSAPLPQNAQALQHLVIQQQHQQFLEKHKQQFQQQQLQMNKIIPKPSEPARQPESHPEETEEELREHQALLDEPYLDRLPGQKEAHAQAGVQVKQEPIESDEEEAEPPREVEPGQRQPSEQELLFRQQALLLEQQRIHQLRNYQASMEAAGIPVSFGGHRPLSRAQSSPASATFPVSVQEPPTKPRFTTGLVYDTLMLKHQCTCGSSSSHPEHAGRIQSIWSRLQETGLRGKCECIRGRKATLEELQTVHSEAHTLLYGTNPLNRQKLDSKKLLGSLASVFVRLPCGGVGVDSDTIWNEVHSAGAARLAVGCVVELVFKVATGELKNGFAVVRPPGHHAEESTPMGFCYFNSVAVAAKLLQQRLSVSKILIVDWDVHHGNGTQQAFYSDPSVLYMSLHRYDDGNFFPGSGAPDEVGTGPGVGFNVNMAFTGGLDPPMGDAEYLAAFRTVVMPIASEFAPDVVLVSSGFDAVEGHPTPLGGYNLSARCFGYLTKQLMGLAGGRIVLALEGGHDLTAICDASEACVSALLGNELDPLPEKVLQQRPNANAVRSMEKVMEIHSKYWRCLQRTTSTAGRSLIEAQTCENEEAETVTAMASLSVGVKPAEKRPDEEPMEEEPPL
Histone deacetylase 2, sequence (Q92769 whole entry): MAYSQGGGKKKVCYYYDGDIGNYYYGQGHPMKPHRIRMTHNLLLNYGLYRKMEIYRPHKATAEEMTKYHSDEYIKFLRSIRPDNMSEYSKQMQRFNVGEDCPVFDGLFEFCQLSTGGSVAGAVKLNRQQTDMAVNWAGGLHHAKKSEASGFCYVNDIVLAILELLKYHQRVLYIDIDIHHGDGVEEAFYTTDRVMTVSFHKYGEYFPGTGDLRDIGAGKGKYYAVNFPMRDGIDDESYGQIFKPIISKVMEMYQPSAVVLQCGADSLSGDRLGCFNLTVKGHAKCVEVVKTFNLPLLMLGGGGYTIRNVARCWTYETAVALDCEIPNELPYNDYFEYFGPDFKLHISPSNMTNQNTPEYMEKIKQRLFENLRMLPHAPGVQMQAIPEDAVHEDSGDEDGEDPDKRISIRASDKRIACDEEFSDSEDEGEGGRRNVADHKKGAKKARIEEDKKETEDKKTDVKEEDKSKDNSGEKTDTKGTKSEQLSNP

In the case of `COc1ccccc1CN1C(=O)C2=C(CCN(Cc3ccc(C(=O)Nc4ccccc4N)cc3)C2)N2CCN=C12`, the IC50 [1] is reported as 156 nM, the IC50 [2] is reported as 563 nM and the IC50 [3] is reported as 2670 nM. The IC50 [4] was 653 nM, the inhibition [5] was “Active” and the inhibition [6] was “Active”. The inhibition [7] was “Active”, the Activity [8] was “Dde” and the Activity [9] was “Dde”. The IC50 [10] was 346 nM, the IC50 [11] was greater than 10000 nM and the IC50 [12] was greater than 10000 nM. For the same compound, the Activity [13] was 1.35%, the Activity [14] was 6.33% and the viability at 0.25 µM [15] was 93%. The Activity [16] was 1.18%, the Activity [17] was 1.82% and the viability at 0.5 µM [18] was 87.2%. The Activity [19] was 2%, the Activity [20] was 9.59% and the Activity [21] was “Active”. For the same compound, the Activity [22] was “Active”, the T/C [23] was 0.33 and the Activity [24] was “Non-Toxic”. The Activity [25] was “Non-Toxic”, the Activity [26] was “Non-Toxic” and the Activity [27] was “Dde”. The Activity [28] was “Dde”, the Activity [29] was “Dde” and the Activity [30] was “Dde”.
